From US20220267310A1, “QUINAZOLINE AND CINNOLINE DERIVATIVES AS DNA-PK INHIBITOR” (MEDSHINE DISCOVERY INC., priority 2019, published 2022)

Columns and labels:
[1] = system: human head and neck cancer FaDu cell subcutaneous xenograft tumor; test: FaDu subcutaneous xenograft, mono and combination with radiotherapy; type: in vivo; details: for Tumor volume (mm^3), 3 days after administration: day 3; for Tumor volume (mm^3), 3 days after administration / Tumor volume (mm^3), 7 days after administration / Tumor volume (mm^3), 10 days after administration / Tumor volume (mm^3), 14 days after administration / Tumor volume (mm^3), 17 days after administration / Tumor volume (mm^3), 23 days after administration / Tumor volume (mm^3), 28 days after administration / Tumor volume (mm^3), 31 days after administration / Tumor volume (mm^3), 35 days after administration / Tumor volume (mm^3), 42 days after administration / Tumor volume (mm^3), 49 days after administration / Tumor volume (mm^3), 56 days after administration / Tumor volume (mm^3), 63 days after administration / Tumor volume (mm^3), 70 days after administration / Tumor volume (mm^3) (0th day) / Tumor volume (mm^3) (21th day): average ± SEM, n = 8; for Tumor volume (mm^3), 7 days after administration: day 7; for Tumor volume (mm^3), 10 days after administration: day 10; for Tumor volume (mm^3), 14 days after administration: day 14; for Tumor volume (mm^3), 17 days after administration: day 17; for Tumor volume (mm^3), 23 days after administration: day 23; for Tumor volume (mm^3), 28 days after administration: day 28; for Tumor volume (mm^3), 31 days after administration: day 31; for Tumor volume (mm^3), 35 days after administration: day 35; for Tumor volume (mm^3), 42 days after administration: day 42; for Tumor volume (mm^3), 49 days after administration: day 49; for Tumor volume (mm^3), 56 days after administration: day 56; for Tumor volume (mm^3), 63 days after administration: day 63; for Tumor volume (mm^3), 70 days after administration: day 70; for RTV (21th day) / T/C (%) (21th day) / TGI (%) (21th day) / Tumor volume (mm^3) (0th day) / Tumor volume (mm^3) (21th day): PO
Protocol: Experiment purpose: The antitumor activity of the tested compound was evaluated in a nude mouse model of human head and neck cancer FaDu cell subcutaneous xenograft tumor
Experimental animals: Female BALB/c nude mice, 6-8 weeks old, weighing 17-23 grams; supplier: B&K Universal Group Limited
Human head and neck cancer FaDu cell (ATCC, Manassas. Virginiaite, item number: HTB-43) was cultured in vitro in a culture condition of EMEM medium with 10% fetal bovine serum, 100 U/mL penicillin and 100 μg/mL streptomycin, incubated at 37° C. and 5% CO2. Conventional digestive treatment passage was carried out using pancreatic enzyme—EDTA twice a week.
Each mouse was subcutaneously inoculated with 0.1 mL ([…]) FaDu cells at the right dorsal position, and when the average tumor volume reaches about 106 mm^3, randomization was used for initiating drug administration.
The tested compound was prepared as a 5 mg/mL clarified solution with 10% DMSO+50% polyethylene glycol 400+40% water as the solvent. Preparation was conducted every three days.
The experimental indicators refers to study whether tumor growth was inhibited, delayed, or cured. Tumor diameter was measured twice a week with a vernier caliper. The calculation formula of the tumor volume was V=0.5a×b^2, and a and b represent the long diameter and short diameter of the tumor, respectively.
The antitumor efficacy of the compound was evaluated by TGI (%) or relative tumor proliferation rate T/C (%). TGI (%) reflects the tumor growth inhibition rate. The calculation of TGI (%): TGI (%)=[1−(average tumor volume at the end of administration of a certain treatment group−average tumor volume at the beginning of administration of the treatment group)/(average tumor volume at the end of treatment in solvent control group−average tumor volume at the beginning of treatment in solvent control group)]×control group.
Relative tumor proliferation rate T/C (%): the calculation formula was as follows: T/C %=[…] TRTV/CRTV group (TRTV: treatment group RTV: CRTV: negative control group RTV). According to results of tumor measurement. Relative Tumor Volume (RTV) was calculated by the formula RTV=Vt/V0, where V0 was the average tumor volume measured in group administration (i.e., d0), and Vt was the average tumor volume measured in a certain single measurement. TRTV and CRTV collect data on the same day.
Statistic analysis includes an average value and a standard error (SEM) of tumor volume at each time point for each group. […] If there was no significant difference in F value, Dunnet (2-sided) method was applied to analysis. All data were analyzed using SPSS 17.0. P<0.05 was considered as having a significant difference.

PI3K (p120γ) = target: T1, PI3K (p120γ) (Homo sapiens, UniProt P48736); test: PI3K (p120γ) kinase inhibitory activity (HTRF); type: biochemical
T1 construct: Eurofins Pharma Discovery Service (contract assay)
Protocol: (§1) This experiment was tested at Eurofins Pharma Discovery Service, Reaction Biology Corp. (RBC)
(§2) […] DNA-PK: Mg/ATP; GST-cMyc-p53; EDTA; Ser15 antibody; ATP: 10 μM; biotinylated phosphatidylinositol-3,4,5-triphosphate; GST label GRP1 PH domain; streptavidin and phycocyanin; europium-labelled monoclonal antibody against GST.
(§3) PI3K (p120γ) was incubated in a determination buffer containing phosphatidylinositol 4,5-diphosphate and Mg/ATP (density as required). The reaction was initiated by adding a mixture of Mg/ATP. After incubating at room temperature for 30 min, a termination solution containing EDTA and biotinylated phosphatidylinositol-3,4,5-triphosphate was added to terminate the reaction. Finally, a detection buffer (containing labeled anti-GST monoclonal antibody, PH domain of GRP1 with GST label and streptavidin and phycyanin and […]) was added. Then, the board was read in time-resolved fluorescence mode, and an HTRF signal was measured according to the formula HTRF=10000×(Em665 nm/Em620 nm).

PI3K (p110β/p85α) = target: T2, PI3K (p110β/p85α) (Homo sapiens, UniProt P42338); test: PI3K (p110β/p85α) kinase inhibitory activity (HTRF); type: biochemical
T2 construct: Eurofins Pharma Discovery Service (contract assay)
Protocol: as §1, §2
as §3, with “(p110β/p85α)” for “(p120γ)”, “phosphatidylinositol-3,4, 5-triphosphate” for “phosphatidylinositol-3,4,5-triphosphate”

[2] = 25 mg/kg, QD + radiotherapy 2 Gy
[3] = 50 mg/kg, QD + radiotherapy 2 Gy

T1 sequence (P48736 whole entry): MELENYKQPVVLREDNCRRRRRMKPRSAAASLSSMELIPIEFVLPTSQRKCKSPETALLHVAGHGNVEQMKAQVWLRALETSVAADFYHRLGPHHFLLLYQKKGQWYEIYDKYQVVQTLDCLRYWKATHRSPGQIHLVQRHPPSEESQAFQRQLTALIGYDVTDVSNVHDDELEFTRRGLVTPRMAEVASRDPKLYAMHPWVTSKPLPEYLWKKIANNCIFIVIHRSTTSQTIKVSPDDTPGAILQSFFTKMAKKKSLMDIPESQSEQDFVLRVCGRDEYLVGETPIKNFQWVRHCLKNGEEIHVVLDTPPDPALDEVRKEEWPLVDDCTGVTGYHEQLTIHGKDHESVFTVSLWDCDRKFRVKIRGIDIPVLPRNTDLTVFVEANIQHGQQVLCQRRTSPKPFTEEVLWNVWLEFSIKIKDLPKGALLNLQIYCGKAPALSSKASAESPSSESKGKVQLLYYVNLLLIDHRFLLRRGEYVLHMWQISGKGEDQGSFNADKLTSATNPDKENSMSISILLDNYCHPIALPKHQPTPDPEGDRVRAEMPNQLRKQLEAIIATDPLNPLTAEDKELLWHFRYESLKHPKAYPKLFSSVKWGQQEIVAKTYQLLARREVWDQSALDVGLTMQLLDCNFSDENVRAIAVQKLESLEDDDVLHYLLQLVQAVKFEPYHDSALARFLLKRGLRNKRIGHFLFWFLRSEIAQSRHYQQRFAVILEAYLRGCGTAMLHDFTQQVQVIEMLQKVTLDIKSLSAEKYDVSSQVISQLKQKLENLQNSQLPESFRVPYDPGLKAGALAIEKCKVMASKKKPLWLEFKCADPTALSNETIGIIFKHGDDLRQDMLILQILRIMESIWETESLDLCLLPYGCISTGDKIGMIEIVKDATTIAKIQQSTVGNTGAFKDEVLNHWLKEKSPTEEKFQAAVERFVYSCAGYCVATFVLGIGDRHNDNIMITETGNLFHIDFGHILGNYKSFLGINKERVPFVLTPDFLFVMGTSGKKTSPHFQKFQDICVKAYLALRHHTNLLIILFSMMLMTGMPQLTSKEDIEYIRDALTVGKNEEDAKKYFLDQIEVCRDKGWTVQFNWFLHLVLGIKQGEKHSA
T2 sequence (P42338 whole entry, species assumed): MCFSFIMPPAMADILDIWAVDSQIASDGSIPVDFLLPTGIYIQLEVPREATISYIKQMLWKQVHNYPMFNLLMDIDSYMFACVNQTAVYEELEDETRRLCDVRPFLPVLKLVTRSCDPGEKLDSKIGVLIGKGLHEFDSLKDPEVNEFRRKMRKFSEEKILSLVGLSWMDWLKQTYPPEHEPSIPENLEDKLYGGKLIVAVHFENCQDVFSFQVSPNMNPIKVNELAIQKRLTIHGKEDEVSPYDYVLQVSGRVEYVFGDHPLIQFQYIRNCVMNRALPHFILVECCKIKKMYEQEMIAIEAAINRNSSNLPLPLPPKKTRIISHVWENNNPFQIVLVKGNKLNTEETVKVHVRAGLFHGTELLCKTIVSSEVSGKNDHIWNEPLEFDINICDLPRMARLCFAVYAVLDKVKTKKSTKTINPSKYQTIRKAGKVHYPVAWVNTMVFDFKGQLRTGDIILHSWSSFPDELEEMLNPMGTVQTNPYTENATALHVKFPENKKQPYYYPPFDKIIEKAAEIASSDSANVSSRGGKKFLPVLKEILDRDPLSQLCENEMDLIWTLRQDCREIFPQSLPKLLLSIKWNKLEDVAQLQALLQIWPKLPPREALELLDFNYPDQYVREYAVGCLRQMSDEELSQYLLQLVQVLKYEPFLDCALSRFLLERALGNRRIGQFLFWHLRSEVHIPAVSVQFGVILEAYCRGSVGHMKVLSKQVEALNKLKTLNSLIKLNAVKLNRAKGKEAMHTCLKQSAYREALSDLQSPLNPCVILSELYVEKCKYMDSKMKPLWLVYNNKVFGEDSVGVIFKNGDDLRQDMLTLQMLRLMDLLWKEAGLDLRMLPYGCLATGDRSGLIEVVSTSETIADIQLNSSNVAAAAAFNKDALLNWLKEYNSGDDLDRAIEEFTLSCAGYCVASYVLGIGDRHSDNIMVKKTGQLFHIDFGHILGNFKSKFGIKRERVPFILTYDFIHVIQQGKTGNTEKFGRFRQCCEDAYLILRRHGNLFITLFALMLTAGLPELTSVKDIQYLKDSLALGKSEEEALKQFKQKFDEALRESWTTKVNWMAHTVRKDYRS
T2 sequence (P27986 whole entry partner, species assumed): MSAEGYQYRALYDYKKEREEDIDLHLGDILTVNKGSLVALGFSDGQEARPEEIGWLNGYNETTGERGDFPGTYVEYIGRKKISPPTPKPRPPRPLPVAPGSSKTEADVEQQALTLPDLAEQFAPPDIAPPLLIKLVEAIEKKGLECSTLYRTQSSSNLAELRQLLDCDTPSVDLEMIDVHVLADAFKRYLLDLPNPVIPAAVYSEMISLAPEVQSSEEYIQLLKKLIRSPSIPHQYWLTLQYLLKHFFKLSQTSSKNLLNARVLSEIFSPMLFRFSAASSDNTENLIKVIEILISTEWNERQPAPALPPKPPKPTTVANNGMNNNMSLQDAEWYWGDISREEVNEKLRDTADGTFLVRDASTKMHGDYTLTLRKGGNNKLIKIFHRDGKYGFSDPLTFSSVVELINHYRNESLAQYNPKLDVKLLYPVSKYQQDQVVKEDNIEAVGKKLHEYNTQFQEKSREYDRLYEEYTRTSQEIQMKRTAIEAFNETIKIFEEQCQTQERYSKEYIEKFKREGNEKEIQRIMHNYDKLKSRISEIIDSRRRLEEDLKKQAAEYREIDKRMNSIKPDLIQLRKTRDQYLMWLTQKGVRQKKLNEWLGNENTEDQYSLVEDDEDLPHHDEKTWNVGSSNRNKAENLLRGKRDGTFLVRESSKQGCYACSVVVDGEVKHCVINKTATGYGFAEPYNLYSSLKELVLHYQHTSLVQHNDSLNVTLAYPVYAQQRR

COc1ccc(C(O)c2cc(-c3cnnc4c(F)c(N5CCOCC5)cc(F)c34)c(F)cc2Cl)nn1 (single isomer, unassigned) [Embodiment 19]
Tumor volume (mm^3), 3 days after administration ([1]; 25 mg/kg + 2 Gy): 172 ± 16 mm^3
Tumor volume (mm^3), 7 days after administration ([1]; 25 mg/kg + 2 Gy): 136 ± 11 mm^3
Tumor volume (mm^3), 10 days after administration ([1]; 25 mg/kg + 2 Gy): 76 ± 11 mm^3
Tumor volume (mm^3), 14 days after administration ([1]; 25 mg/kg + 2 Gy): 29 ± 5 mm^3
Tumor volume (mm^3), 17 days after administration ([1]; 25 mg/kg + 2 Gy): 11 ± 3 mm^3
Tumor volume (mm^3), 23 days after administration ([1]; 25 mg/kg + 2 Gy): 1 ± 1 mm^3
Tumor volume (mm^3), 28 days after administration ([1]; 25 mg/kg + 2 Gy): 0 ± 0 mm^3
Tumor volume (mm^3), 31 days after administration ([1]; 25 mg/kg + 2 Gy): 0 ± 0 mm^3
Tumor volume (mm^3), 35 days after administration ([1]; 25 mg/kg + 2 Gy): 0 ± 0 mm^3
Tumor volume (mm^3), 42 days after administration ([1]; 25 mg/kg + 2 Gy): 0 ± 0 mm^3
Tumor volume (mm^3), 49 days after administration ([1]; 25 mg/kg + 2 Gy): 0 ± 0 mm^3
Tumor volume (mm^3), 56 days after administration ([1]; 25 mg/kg + 2 Gy): 0 ± 0 mm^3
Tumor volume (mm^3), 63 days after administration ([1]; 25 mg/kg + 2 Gy): 0 ± 0 mm^3
Tumor volume (mm^3), 70 days after administration ([1]; 25 mg/kg + 2 Gy): 0 ± 0 mm^3
RTV (21th day) [1, 2]: 0.01 ± 0.01
T/C (%) (21th day) [1, 2]: 0.08%
TGI (%) (21th day) [1, 2]: 108.61%
Tumor volume (mm^3) (0th day) ([1]; 25 mg/kg, QD + radiotherapy 2 Gy, 5-day radiotherapy, 2-day withdrawal): 106 ± 6 mm^3
Tumor volume (mm^3) (21th day) [1, 2]: 1 ± 1 mm^3
Tumor volume (mm^3), 3 days after administration ([1]; 50 mg/kg + 2 Gy): 175 ± 14 mm^3
Tumor volume (mm^3), 7 days after administration ([1]; 50 mg/kg + 2 Gy): 155 ± 17 mm^3
Tumor volume (mm^3), 10 days after administration ([1]; 50 mg/kg + 2 Gy): 97 ± 16 mm^3
Tumor volume (mm^3), 14 days after administration ([1]; 50 mg/kg + 2 Gy): 45 ± 10 mm^3
Tumor volume (mm^3), 17 days after administration ([1]; 50 mg/kg + 2 Gy): 12 ± 5 mm^3
Tumor volume (mm^3), 23 days after administration ([1]; 50 mg/kg + 2 Gy): 1 ± 1 mm^3
Tumor volume (mm^3), 28 days after administration ([1]; 50 mg/kg + 2 Gy): 1 ± 0 mm^3
Tumor volume (mm^3), 31 days after administration ([1]; 50 mg/kg + 2 Gy): 0 ± 0 mm^3
Tumor volume (mm^3), 35 days after administration ([1]; 50 mg/kg + 2 Gy): 0 ± 0 mm^3
Tumor volume (mm^3), 42 days after administration ([1]; 50 mg/kg + 2 Gy): 0 ± 0 mm^3
Tumor volume (mm^3), 49 days after administration ([1]; 50 mg/kg + 2 Gy): 0 ± 0 mm^3
Tumor volume (mm^3), 56 days after administration ([1]; 50 mg/kg + 2 Gy): 0 ± 0 mm^3
Tumor volume (mm^3), 63 days after administration ([1]; 50 mg/kg + 2 Gy): 0 ± 0 mm^3
Tumor volume (mm^3), 70 days after administration ([1]; 50 mg/kg + 2 Gy): 0 ± 0 mm^3
animal death or euthanasia during the study ([1]; 50 mg/kg alone, one animal of the group): euthanized 22 days after the start of administration
Tumor volume (mm^3), 3 days after administration ([1]; 50 mg/kg alone): 189 ± 18 mm^3
Tumor volume (mm^3), 7 days after administration ([1]; 50 mg/kg alone): 375 ± 28 mm^3
Tumor volume (mm^3), 10 days after administration ([1]; 50 mg/kg alone): 568 ± 50 mm^3
Tumor volume (mm^3), 14 days after administration ([1]; 50 mg/kg alone): 946 ± 108 mm^3
Tumor volume (mm^3), 17 days after administration ([1]; 50 mg/kg alone): 1120 ± 131 mm^3
Tumor volume (mm^3), 23 days after administration ([1]; 50 mg/kg alone): 1808 ± 372 mm^3
RTV (21th day) [1, 3]: 0.01 ± 0.01
T/C (%) (21th day) [1, 3]: 0.08%
TGI (%) (21th day) [1, 3]: 108.64%
Tumor volume (mm^3) (0th day) ([1]; 50 mg/kg, QD + radiotherapy 2 Gy, 5-day radiotherapy, 2-day withdrawal): 106 ± 5 mm^3
Tumor volume (mm^3) (21th day) [1, 3]: 1 ± 1 mm^3
RTV (21th day) ([1]; 50 mg/kg, QD, alone): 14.18 ± 2.04
T/C (%) (21th day) ([1]; 50 mg/kg, QD, alone): 114.35%
TGI (%) (21th day) ([1]; 50 mg/kg, QD, alone): −15.37%
Tumor volume (mm^3) (0th day) ([1]; 50 mg/kg, QD, alone): 106 ± 5 mm^3
Tumor volume (mm^3) (21th day) ([1]; 50 mg/kg, QD, alone): 1501 ± 242 mm^3
IC50 (PI3K (p120γ)): 9.15 µM
IC50 (PI3K (p110β/p85α)): 0.345 µM
